Experimental data taken from US9115153B2, “Aza metal complexes” (Canon Kabushiki Kaisha, priority 2007, dated 2015).

Experiments:
[1] = T1 relaxation time measurement by 500 MHz NMR (aqueous solution); assay type: physicochemical; details: 0.13 mM aqueous solution, 10% heavy water, 27° C., inversion recovery
Protocol: The T1 relaxation time measurement was performed using a broadband probe on a 500 MHz NMR apparatus (Avance 500 manufactured by Bruker Biospin K.K.). The T1 relaxation times were measured at 27° C. using an inversion recovery method.
First, a Gd triamine 2nd G-12-ol-dendrimer complex (R)-11 was dissolved in 1 ml of ultrapure water to prepare an aqueous solution in which the concentration of complex (R)-11 was 24.05 mM. In addition, the concentration of complex (R)-11 was determined from the Gd concentration by inductive coupled plasma emission spectrometry (ICP emission spectrometry). Next, the aqueous solution was diluted with ultrapure water and heavy water so that the concentration of complex (R)-11 was 0.13 mM and the concentration of heavy water was 10%, and the resulting aqueous solution was used as an NMR measurement sample. […] The data shown in FIG. 1 clarified that the T1 time of water of the complex (R)-11 aqueous solution was 429 ms.
The T1 relaxation time was measured in the same manner as in Example 4. […] The T1 relaxation time of water for the Gd (DTPA) aqueous solution sample determined from the data shown in FIG. 2 was 1333 ms, which is considerably longer than the T1 relaxation time of complex (R)-11.

[2] = T1 relaxation time measurement by 7T MRI (inversion recovery FISP); assay type: physicochemical; details: 1.3 mM in ultrapure water, 24° C.
Protocol: The T1 relaxation time measurement by MRI was performed using a 7T MRI apparatus (BioSpec 70/20 manufactured Bruker Biospin K.K.). The T1 relaxation time was measured under the measurement conditions of TR/TE 3/1.5 ms, FOV=8*4 cm, matrix=128*128, NA=2 and a temperature of 24° C. using an inversion recovery FISP method. Aqueous solutions of six different concentrations (1.3 mM, 0.65 mM, 0.325 mM, 0.13 mM, 0.026 mM and 0.013 mM) were prepared by dissolving complex (R)-11 in ultrapure water, and each of the aqueous solutions was placed into an Eppendorf tube and used directly as a measurement sample.
The T1 relaxation time was measured in the same manner as in Example 5. A GdCl3 aqueous solution was prepared by dissolving commercially available GdCl3.6H2O in ultrapure water so that the concentration was adjusted to 1.3 mM, and Gd (DTPA) aqueous solutions were prepared by diluting a commercially available Gd (DTPA) aqueous solution (630 mM) with ultrapure water so that the concentration was adjusted to 2.0, 1.3, 1.0, 0.5 and 0.25 mM, respectively. Each of the aqueous solutions was placed into an Eppendorf tube and used directly as a measurement sample.

[3] = T1 relaxation time measurement by 500 MHz NMR in FBS solution; assay type: physicochemical; details: FBS 80%, heavy water 10%, H2O 10%; otherwise as Example 4 / Comparative Example 1 (500 MHz NMR)
Protocol: The T1 time was measured in the same manner as in Example 4 except that the NMR measurement sample was changed to an FBS (fetal bovine serum) solution of the complex (R)-11 (FBS concentration: 80%, heavy water concentration: 10%, H2O concentration: 10%).
The T1 time was measured in the same manner as in Comparative Example 1 except that the NMR measurement sample was changed to an FBS (fetal bovine serum) solution of GdCl3 or Gd (DTPA) (FBS concentration: 80%, heavy water concentration: 10%, H2O concentration: 10%).

[4] = XAFS measurement and analysis (coordination number); assay type: physicochemical; details: for comparison
Protocol: The XAFS analysis of the complex (R)-11 was performed at Spring-8.
Specifically, the number of the coordinated water molecules was estimated by removing background from XAFS spectra and performing fitting using Fourier transformation or Fourier inverse transformation.
Further, the XAFS spectra were obtained by a transmission method using an ion chamber for a pellet (in a powder state) of the complex ((R)-11) and a fluorescence method using a multi-element semiconductor detector for an aqueous solution of the complex ((R)-11), respectively.
When fitting was performed without fixing the proximal coordination number to 9, the following results were obtained. In a powder state, the coordination number of O was 6.99 and the distance between atoms of Gd and O was 2.421 Å, and in an aqueous solution (3 mM) the coordination number of O was 9.77 and the distance between atoms of Gd and O was 2.430 Å.

[5] = aqueous solutions of 2.0, 1.0, 0.5 and 0.25 mM, saturation recovery spin echo, 24° C.

Row | Structure (SMILES) | T1 relaxation time of water [1] | T1 [2] | T1 time of water for FBS solution [3] | coordination number of water molecule [4] | T1 relaxation ability r1 [5]
1 | [Cl][Gd]([Cl])[Cl] [GdCl3] | 712 ms | 58.991 ms | 1708 ms | – | –
2 | O=C([O-])CN(CCN(CC(=O)[O-])CC(=O)O)CCN(CC(=O)[O-])CC(=O)O.[Gd+3] [Gd (DTPA)] | 1333 ms | 205.653 ms | 1429 ms | 1 | 4.661 L/mmol/s
3 | O=C([O-])CN1CCN(CC(=O)[O-])CCN(CC(=O)O)CCN(CC(=O)[O-])CC1.[Gd+3] [Gd (DOTA), reference compound] | – | – | – | 1 | –
